Assay [1] deals with GABA-A receptor; anion channel. Briefly: Displacement of [3H]flunitrazepam from GABAA central benzodiazepine receptor in Wistar rat brain membrane without cerebellum measured after 60 mins by scintillation counting analysis. It counts as cell membranes. (In a radioligand displacement assay an active substance lowers the binding of a labelled ligand.)
Assay [2] addresses GABA-A receptor; anion channel (Rattus norvegicus) (UniProt O09028+P15431+P18506+P18508+P19969+P20236+P23574+P23576+P28471+P28473+P30191+P62813+P63079+P63138+Q91ZM7+Q9ES14). Briefly: Displacement of [3H]flunitrazepam from GABAA central benzodiazepine receptor in Wistar rat brain membrane without cerebellum measured after 60 mins by scintillation counting analysis relative to control. The format is cell membranes.

This note sets out measurements from ChEMBL document CHEMBL5120840, “Axial chirality and affinity at the GABAA receptor of triazolobenzodiazepines” (Bioorg Med Chem, 2022).

pIC50: −log10 of the molar value. Values joined by “and” are separate entries in the source; they are usually repeats but may differ in a detail not shown here. Equal entries are not always repeated.

Usually pIC50 stands for −log10 of the IC50, conventionally taken in molar units. Read a low pIC50 as a large IC50. One may read the inhibition as the share of the control response that was lost under treatment. Higher therefore signals strong suppression.

With `Cc1cc(Cl)cc2c1-n1c(C)nnc1CN=C2c1ccccc1Cl`, in assay [1], the pIC50 was 7.96 and 7.47. In assay [2], this compound displayed an inhibition of under 50%.

Consider `Clc1ccc2c(c1)C(c1ccccc1Cl)=NCc1nncn1-2`, for which, in assay [1], the pIC50 was 8.71.

Turning to `Cc1cc(Cl)cc2c1-n1c(C)nnc1CN=C2c1ccccc1`, the pIC50 in assay [1] was 6.68 and 6.37. In addition, the inhibition in assay [2] was under 50%.

The compound `Cc1cc(Cl)cc2c1-n1cnnc1CN=C2c1ccccc1Cl` gave a pIC50 in assay [1] of 7.64.
